Tests used:
α5ß2 γ2 GABAA Receptor = target: T1, α5ß2 γ2 GABAA Receptor (Homo sapiens, UniProt P18507+P31644); test: Assay B: in vitro evaluation of modulation of α5ß2γ2 GABAA receptor, two-electrode voltage clamp in oocytes; assay type: cell-based; details: for EC50: co-application with 0.5 μM GABA, oocytes, read-out: Assay B: GABAA α 5 β 3 γ 2 EC50
T1 sequence (P31644 32-462): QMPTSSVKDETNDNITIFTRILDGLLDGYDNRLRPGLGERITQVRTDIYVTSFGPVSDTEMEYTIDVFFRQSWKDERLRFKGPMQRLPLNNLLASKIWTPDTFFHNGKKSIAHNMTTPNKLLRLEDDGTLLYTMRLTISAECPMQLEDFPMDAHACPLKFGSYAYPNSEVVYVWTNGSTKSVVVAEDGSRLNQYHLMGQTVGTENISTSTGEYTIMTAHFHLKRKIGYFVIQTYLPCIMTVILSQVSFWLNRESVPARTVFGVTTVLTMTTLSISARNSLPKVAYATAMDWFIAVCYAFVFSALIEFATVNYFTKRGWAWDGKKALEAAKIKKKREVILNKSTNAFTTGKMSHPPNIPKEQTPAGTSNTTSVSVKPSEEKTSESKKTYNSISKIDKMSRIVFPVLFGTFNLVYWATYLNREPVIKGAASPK
T1 sequence (P18507 40-376 limits assumed): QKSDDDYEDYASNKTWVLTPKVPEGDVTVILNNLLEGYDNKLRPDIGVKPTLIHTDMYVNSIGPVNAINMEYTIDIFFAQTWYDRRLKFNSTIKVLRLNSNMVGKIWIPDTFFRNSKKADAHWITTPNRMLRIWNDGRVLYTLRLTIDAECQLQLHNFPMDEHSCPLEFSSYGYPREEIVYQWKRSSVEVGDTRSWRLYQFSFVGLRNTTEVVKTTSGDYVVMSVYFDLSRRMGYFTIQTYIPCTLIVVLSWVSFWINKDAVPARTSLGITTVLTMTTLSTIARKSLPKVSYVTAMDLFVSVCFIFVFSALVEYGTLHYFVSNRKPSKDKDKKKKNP
Description: Assay B: In Vitro Evaluation of Modulation of α5ß2 γ2 GABAA Receptor.
Modulatory efficacy of compounds of formular (I) is determined electrophysiological recordings in oocytes using the two-electrode voltage clamp (TEVC) technique. Oocytes are injected with cRNA for human GABAA receptor subunits α5, ß2 and γ2 in a 3:1:3 ratio and modulatory efficacy is evaluated by co-applications with a submaximal EC5-20 GABA concentration (0.5 μM) termed GABA control. As a standard, the compounds are tested in five concentrations (3.16, 0.316, 0.0316, 0.00316 and 0.000316 μM) on each oocyte starting with the lowest concentration. Background subtracted peak current amplitudes are normalized to the respective GABAcontrol current, converted to % change and depicted +/−S.E.M. as a function of increasing compound concentrations. Plotted datapoints are fitted to the empirical Hill equation using non-linear regression. 95% confidence intervals for maximal efficacy (Bottom) and potency (Log EC50) are derived from this fitting routine.

[1] = Metabolic stability in human liver microsomes (Human MST); assay type: in vitro ADME; details: pH 7.6, pooled human liver microsomes, 37° C., read-out: Human MST t½
Description: Assessment of Metabolic Stability in Human Liver Microsomes (Human MST) The metabolic stability of the compounds according to the invention may be investigated as follows: The metabolic degradation of the test compound is assayed at 37° C. with pooled human liver microsomes. The final incubation volume of 100 μL per time point contains TRIS buffer pH 7.6 at room temperature (0.1 M), MgCl2 (5 mM), microsomal protein (1 mg/mL) and the test compound at a final concentration of 1 μM. Following a short pre-incubation period at 37° C., the reactions are initiated by addition of beta-nicotinamide adenine dinucleotide phosphate, reduced form (NADPH, 1 mM), and terminated by transferring an aliquot into solvent after different time points. After centrifugation (10000 g, 5 min), an aliquot of the supernatant is assayed by LCMS/MS for the amount of parent compound. The half-life (t1/2) is determined by the slope of the semi-logarithmic plot of the concentration-time profile.

human MDR1 P-gp = test: Assessment of efflux in MDCK cells transfected with the human MDR1 gene; assay type: in vitro ADME, canine; details: dog, pH 7.4, 37° C.; for Papp A→B: apical-to-basal, read-out: MDCK-PGP A-B; for efflux ratio: read-out: MDCK-PGP Efflux ratio [PEBA/PEAB]
Description: Assessment of efflux in Madin-Darby canine kidney (MDCK) cells transfected with the human MDR1 gene to assess brain penetration (Drug Metabolism and Disposition February 2008, 36 (2) 268-275; DOI: https://doi.org/10.1124/dmd.107.017434)
Apparent permeability coefficients (PE) of the compounds across the MDCK-MDR1 cell monolayers are measured (pH 7.4, 37° C.) in apical-to-basal (AB) and basal-to-apical (BA) transport direction. AB permeability (PEAB) represents drug absorption from the blood into the 35 brain and BA permeability (PEBA) drug efflux from the brain back into the blood via both passive permeability as well as active transport mechanisms mediated by efflux and uptake transporters that are expressed on the MDCK-MDR1 cells, predominantly by the overexpressed human MDR1 P-gp. The compounds are assigned to permeability/absorption classes by comparison of the AB permeabilities with the AB permeabilities of reference compounds with known in vitro permeability and oral absorption in the human. Identical or similar permeabilities in both transport directions indicate passive permeation, vectorial permeability points to additional active transport mechanisms. Higher PEBA than PEAB indicates the involvement of active efflux mediated by MDR1 P-gp. Active transport is concentration-dependently saturable.
MDCK-MDR1 cells (1-2×10e5 cells/1 cm2 area) are seeded on filter inserts (Costar transwell polycarbonate or PET filters, 0.4 μm pore size) and cultured (DMEM) for 7 days. Subsequently, the MDR1 expression is boosted by culturing the cells with 5 mM sodium butyrate in full medium for 2 days. Compounds are dissolved in appropriate solvent (like DMSO, 1-20 mM stock solutions). Stock solutions are diluted with HTP-4 buffer (128.13 mM NaCl, 5.36 mM KCl, 1 mM MgSO4, 1.8 mM CaCl2, 4.17 mM NaHCO3, 1.19 mM Na2HPO4×7H2O, 0.41 mM NaH2PO4×H2O, 15 mM HEPES, 20 mM glucose, 0.25% BSA, pH 7.4) to prepare the transport solutions (0.1-300 μM compound, final DMSO <=0.5%). The transport solution (TL) is applied to the apical or basolateral donor side for measuring A-B or B-A permeability (3 filter replicates), respectively. The receiver side contains the same buffer as the donor side. Samples are collected at the start and end of experiment from the donor and at various time intervals for up to 2 hours also from the receiver side for concentration measurement by HPLC-MS/MS or scintillation counting. Sampled receiver volumes are replaced with fresh receiver solution.

Structure (SMILES) | Assay B: GABAA α 5 β 3 γ 2 Emax vs GABA (α5ß2 γ2 GABAA Receptor) [%] | EC50 (α5ß2 γ2 GABAA Receptor) [nM] | half-life at 1 μM [1] [h] | Papp A→B (human MDR1 P-gp) [×10⁻⁶ cm/s] | efflux ratio (human MDR1 P-gp)
Cc1nnn(-c2ccc(C(F)F)cn2)c1COc1ccc(-c2c[nH]c(=O)c(F)c2)nn1 [Example 20] | -32.3 | 11.6 | > 2.17 | 15 | 2
Cn1nnc(-c2ccc(C(F)F)cn2)c1COc1ccc(-c2cccc(C(N)=O)c2)nn1 [Example 28] | -20 | 14.6 | > 2.17 | 3 | 17.2
CCn1cc(-c2ccc(OCc3c(-c4ccc(C(F)F)cn4)nnn3C)nn2)cn1 [Example 22] | -14.9 | 26.9 | > 2.17 | 40 | 1.1
Cc1nnn(-c2ccc(C(F)F)cn2)c1COc1ccc(-n2cc(C#N)cn2)nn1 [Example 37] | -25.3 | 37.3 | 2.15 | 59 | 0.4
Cc1nnn(-c2ccc(C(F)F)cn2)c1COc1ccc(-c2cnccn2)nn1 [Example 56, 3-({1-[5-(difluoromethyl)pyridin-2-yl]-4-methyl-1H-1,2,3-triazol-5-yl}methoxy)-6-(pyrazin-2-yl)pyridazine] | -17.7 | 14.5 | > 2.17 | 58 | 0.6
Cn1nnc(-c2ccc(C(F)F)cn2)c1COc1ccc(-c2cn[nH]c2)nn1 [Example 24] | -14.7 | 9.8 | 1.03 | 10 | 6.6
Cc1cc(-c2ccc(OCc3c(C)nnn3-c3ccc(C(F)F)cn3)nn2)cnn1 [Example 3] | -24.7 | 6.6 | > 2.17 | 41 | 1.4
Cn1nnc(-c2ccc(C(F)F)cn2)c1COc1ccc(-c2cnccn2)nn1 [Example 39] | -24.6 | 354 | > 2.17 | 59 | 0.6
Cn1nnc(-c2ccc(C(F)F)cn2)c1COc1ccc(-n2cnc(C#N)c2)nn1 [Example 52] | -16 | 2 | > 2.17 | 18 | 2.7
Cc1nnn(-c2ccc(C(F)F)cn2)c1COc1ccc(-c2ccc(=O)n(C)c2)nn1 [Example 1, 5-[6-({1-[5-(difluoromethyl)pyridin-2-yl]-4-methyl-1H-1,2,3-triazol-5-yl}methoxy)pyridazin-3-yl]-1-methyl-1,2-dihydropyridin-2-one] | -24.9 | 41.3 | > 2.17 | 31 | 1.8
Cc1nnn(-c2ccc(C(F)F)cn2)c1COc1ccc(-c2ccnnc2)nn1 [Example 17] | -33.2 | 1 | > 2.17 | 51 | 1
Cc1nnn(-c2ccc(C(F)F)cn2)c1COc1ccc(-c2cn[nH]c2)nn1 [Example 4] | -22.3 | 93 | 0.667 | 57 | 0.8

— US20230286946A1, “DIFLUOROMETHYL-PYRIDIN-2-YL TRIAZOLES” (Boehringer Ingelheim International GmbH, priority 2020, published 2023)
